According to ChEMBL document CHEMBL4033685, “C21-steroidal pregnane sapogenins and their derivatives as anti-inflammatory agents” (Bioorg Med Chem, 2017):
The source made the active and inactive calls.

Tests used:
THP-1 [1] = experiment: Effect on RelB protein expression in human THP1 cells at 10 uM after 3 hrs by Western blot analysis; format: functional, cell-based
Toll-like receptor 4 [2] = biological target: T1, Toll-like receptor 4 (Homo sapiens, UniProt O00206); experiment: Antagonist activity at TLR4 (unknown origin) expressed in human AD293 cells assessed as inhibition of LPS/ATP-stimulated TLR4/NF-kB signaling pathway after 16 hrs by luciferase reporter gene assay; format: cell-based
Homo sapiens = species on record: Homo sapiens; experiment: Inhibition of TNFalpha-stimulated NF-kB signaling pathway (unknown origin) expressed in human AD293 cells after 4 hrs by luciferase reporter gene assay; format: cell-based
AD293 [3] = experiment: Cytotoxicity against human AD293 cells assessed as reduction in cell viability after 24 hrs by methylene blue dye based spectrophotometric method; details: ad293, 24 h
Toll-like receptor 4 [4] = biological target: T1, Toll-like receptor 4; experiment: Antagonist activity at TLR4 in human THP1 cells assessed as inhibition of LPS-stimulated IL-6 mRNA level at 10 uM after 16 hrs by RT-PCR method; format: cell-based
Toll-like receptor 4 [5] = biological target: T1, Toll-like receptor 4; experiment: Antagonist activity at TLR4 in human THP1 cells assessed as inhibition of LPS-stimulated RANTES mRNA level at 10 uM after 16 hrs by RT-PCR method; format: cell-based
[6] = biological target: Toll-like receptor 3 (Homo sapiens) (UniProt O15455); experiment: Antagonist activity at TLR3 in human THP1 cells assessed as inhibition of poly IC-stimulated IL-6 mRNA level at 10 uM after 16 hrs by RT-PCR method; format: cell-based
[7] = biological target: Toll-like receptor 3 (Homo sapiens) (UniProt O15455); experiment: Antagonist activity at TLR3 in human THP1 cells assessed as inhibition of poly IC-stimulated RANTES mRNA level at 10 uM after 16 hrs by RT-PCR method; format: cell-based
[8] = biological target: Toll-like receptor 2 (Homo sapiens) (UniProt O60603); experiment: Antagonist activity at TLR2 in human THP1 cells assessed as inhibition of PGN-stimulated IL-6 mRNA level at 10 uM after 16 hrs by RT-PCR method; format: cell-based
[9] = biological target: Toll-like receptor 2 (Homo sapiens) (UniProt O60603); experiment: Antagonist activity at TLR2 in human THP1 cells assessed as inhibition of PGN-stimulated RANTES mRNA level at 10 uM after 16 hrs by RT-PCR method; format: cell-based
Toll-like receptor 4 [10] = biological target: T1, Toll-like receptor 4; experiment: Antagonist activity at TLR4 in human THP1 cells assessed as inhibition of LPS-stimulated IL-1beta level at 10 uM by bead based immunoassay; format: cell-based
Toll-like receptor 4 [11] = biological target: T1, Toll-like receptor 4; experiment: Antagonist activity at TLR4 in human THP1 cells assessed as inhibition of LPS-stimulated TNFalpha level at 10 uM by bead based immunoassay; format: cell-based
Toll-like receptor 4 [12] = biological target: T1, Toll-like receptor 4; experiment: Antagonist activity at TLR4 in human THP1 cells assessed as inhibition of LPS-stimulated IL-6 level at 10 uM by bead based immunoassay; format: cell-based
[13] = biological target: Toll-like receptor 3 (Homo sapiens) (UniProt O15455); experiment: Antagonist activity at TLR3 in human THP1 cells assessed as inhibition of poly IC-stimulated IL-1beta level at 10 uM by bead based immunoassay; format: cell-based
[14] = biological target: Toll-like receptor 3 (Homo sapiens) (UniProt O15455); experiment: Antagonist activity at TLR3 in human THP1 cells assessed as inhibition of poly IC-stimulated TNFalpha level at 10 uM by bead based immunoassay; format: cell-based
[15] = biological target: Toll-like receptor 2 (Homo sapiens) (UniProt O60603); experiment: Antagonist activity at TLR2 in human THP1 cells assessed as inhibition of PGN-stimulated IL-1beta level at 10 uM by bead based immunoassay; format: cell-based
[16] = biological target: Toll-like receptor 2 (Homo sapiens) (UniProt O60603); experiment: Antagonist activity at TLR2 in human THP1 cells assessed as inhibition of PGN-stimulated TNFalpha level at 10 uM by bead based immunoassay; format: cell-based
[17] = biological target: Transcription factor p65 (Homo sapiens) (UniProt Q04206); experiment: Inhibition of TNFalpha-stimulated NF-kB p65 activation (unknown origin) expressed in human AD293 cells assessed as nuclear translocation of p65 at 10 uM after 3 hrs by confocal microscopic method; format: cell-based
[18] = biological target: Transcription factor p65 (Homo sapiens) (UniProt Q04206); experiment: Inhibition of TNFalpha-stimulated NF-kB p65 phosphorylation (unknown origin) expressed in human AD293 cells at 10 uM after 3 hrs by Western blot analysis; format: cell-based
[19] = biological target: T2, NF-kappa-B inhibitor alpha (Homo sapiens) (UniProt P25963); experiment: Inhibition of TNFalpha-stimulated IkBalpha phosphorylation in human AD293 cells at 10 uM after 3 hrs by Western blot analysis; format: cell-based
T2 sequence (whole entry): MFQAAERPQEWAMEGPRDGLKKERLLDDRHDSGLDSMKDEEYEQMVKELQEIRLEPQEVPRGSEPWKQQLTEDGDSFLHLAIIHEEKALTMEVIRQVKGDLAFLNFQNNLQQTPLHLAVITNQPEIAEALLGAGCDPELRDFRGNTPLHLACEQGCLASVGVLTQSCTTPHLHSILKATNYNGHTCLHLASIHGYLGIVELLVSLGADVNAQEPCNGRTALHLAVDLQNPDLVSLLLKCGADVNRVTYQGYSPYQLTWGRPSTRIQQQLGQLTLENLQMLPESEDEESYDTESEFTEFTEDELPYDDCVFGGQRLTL

AD293 [20] = experiment: Effect on IkBalpha protein expression in TNFalpha-stimulated human AD293 cells at 10 uM after 3 hrs by Western blot analysis; format: functional, cell-based
[21] = biological target: Transcription factor p65 (Homo sapiens) (UniProt Q04206); experiment: Upregulation of NF-kB p65 phosphorylation (unknown origin) expressed in human AD293 cells at 10 uM after 3 hrs by Western blot analysis; format: cell-based
Toll-like receptor 4 [22] = biological target: T1, Toll-like receptor 4; experiment: Antagonist activity at TLR4 in human THP1 cells assessed as increase in LPS-stimulated NFkappaB p65 phosphorylation at 10 uM after 3 hrs by Western blot analysis; format: cell-based
THP-1 [23] = experiment: Downregulation of IkBalpha protein expression in LPS-stimulated human THP1 cells at 10 uM after 3 hrs by Western blot analysis; format: functional, cell-based
THP-1 [24] = experiment: Downregulation of IkBalpha protein expression in human THP1 cells at 10 uM after 3 hrs by Western blot analysis; format: functional, cell-based
Toll-like receptor 4 [25] = biological target: T1, Toll-like receptor 4; experiment: Antagonist activity at TLR4 in human THP1 cells assessed as inhibition of LPS-stimulated NF-kB canonical signaling pathway by measuring decrease in IkBalpha phosphorylation at 10 uM after 3 hrs by Western blot analysis; format: cell-based
THP-1 [26] = experiment: Upregulation of IKKalpha protein expression in LPS-stimulated human THP1 cells at 10 uM after 3 hrs by Western blot analysis; format: functional, cell-based
THP-1 [27] = experiment: Upregulation of IKKalpha protein expression in human THP1 cells at 10 uM after 3 hrs by Western blot analysis; format: functional, cell-based
AD293 [28] = experiment: Upregulation of IKKalpha protein expression in TNFalpha-stimulated human AD293 cells at 10 uM after 3 hrs by Western blot analysis; format: functional, cell-based
AD293 [29] = experiment: Upregulation of IKKalpha protein expression in human AD293 cells at 10 uM after 3 hrs by Western blot analysis; format: functional, cell-based
Toll-like receptor 4 [30] = biological target: T1, Toll-like receptor 4; experiment: Antagonist activity at TLR4 in human THP1 cells assessed as inhibition of LPS-stimulated NF-kB non-canonical signaling pathway by measuring decrease in RelB expression at 10 uM after 3 hrs by Western blot analysis; format: cell-based
Toll-like receptor 4 [31] = biological target: T1, Toll-like receptor 4; experiment: Antagonist activity at TLR4 in human THP1 cells harboring human TRAF6 assessed as inhibition of LPS-stimulated IL-1beta level at 10 uM by bead based immunoassay; format: cell-based
Toll-like receptor 4 [32] = biological target: T1, Toll-like receptor 4; experiment: Antagonist activity at TLR4 in human THP1 cells harboring human TRAF6 assessed as inhibition of LPS-stimulated TNFalpha level at 10 uM by bead based immunoassay; format: cell-based
Toll-like receptor 4 [33] = biological target: T1, Toll-like receptor 4; experiment: Antagonist activity at TLR4 in human THP1 cells harboring human TRAF6 assessed as inhibition of LPS-stimulated IL-6 level at 10 uM by bead based immunoassay; format: cell-based

Chain of Transcription factor p65 (Homo sapiens) (Q04206 whole entry): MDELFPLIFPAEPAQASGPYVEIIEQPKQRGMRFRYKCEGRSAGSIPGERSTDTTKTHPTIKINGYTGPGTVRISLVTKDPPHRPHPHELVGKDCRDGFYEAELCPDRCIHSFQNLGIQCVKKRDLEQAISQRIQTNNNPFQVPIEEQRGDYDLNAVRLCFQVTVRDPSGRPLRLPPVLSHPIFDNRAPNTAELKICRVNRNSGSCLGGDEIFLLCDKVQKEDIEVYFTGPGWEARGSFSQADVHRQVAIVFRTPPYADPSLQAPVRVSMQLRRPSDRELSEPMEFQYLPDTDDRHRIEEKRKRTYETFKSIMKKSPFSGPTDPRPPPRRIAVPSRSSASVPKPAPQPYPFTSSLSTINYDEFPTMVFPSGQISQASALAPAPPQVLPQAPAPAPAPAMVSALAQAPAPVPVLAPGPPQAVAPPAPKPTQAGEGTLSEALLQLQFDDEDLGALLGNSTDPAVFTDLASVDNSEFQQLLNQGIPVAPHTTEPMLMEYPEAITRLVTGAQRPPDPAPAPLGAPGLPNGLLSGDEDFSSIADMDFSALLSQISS
Chain of Toll-like receptor 3 (Homo sapiens) (O15455 whole entry): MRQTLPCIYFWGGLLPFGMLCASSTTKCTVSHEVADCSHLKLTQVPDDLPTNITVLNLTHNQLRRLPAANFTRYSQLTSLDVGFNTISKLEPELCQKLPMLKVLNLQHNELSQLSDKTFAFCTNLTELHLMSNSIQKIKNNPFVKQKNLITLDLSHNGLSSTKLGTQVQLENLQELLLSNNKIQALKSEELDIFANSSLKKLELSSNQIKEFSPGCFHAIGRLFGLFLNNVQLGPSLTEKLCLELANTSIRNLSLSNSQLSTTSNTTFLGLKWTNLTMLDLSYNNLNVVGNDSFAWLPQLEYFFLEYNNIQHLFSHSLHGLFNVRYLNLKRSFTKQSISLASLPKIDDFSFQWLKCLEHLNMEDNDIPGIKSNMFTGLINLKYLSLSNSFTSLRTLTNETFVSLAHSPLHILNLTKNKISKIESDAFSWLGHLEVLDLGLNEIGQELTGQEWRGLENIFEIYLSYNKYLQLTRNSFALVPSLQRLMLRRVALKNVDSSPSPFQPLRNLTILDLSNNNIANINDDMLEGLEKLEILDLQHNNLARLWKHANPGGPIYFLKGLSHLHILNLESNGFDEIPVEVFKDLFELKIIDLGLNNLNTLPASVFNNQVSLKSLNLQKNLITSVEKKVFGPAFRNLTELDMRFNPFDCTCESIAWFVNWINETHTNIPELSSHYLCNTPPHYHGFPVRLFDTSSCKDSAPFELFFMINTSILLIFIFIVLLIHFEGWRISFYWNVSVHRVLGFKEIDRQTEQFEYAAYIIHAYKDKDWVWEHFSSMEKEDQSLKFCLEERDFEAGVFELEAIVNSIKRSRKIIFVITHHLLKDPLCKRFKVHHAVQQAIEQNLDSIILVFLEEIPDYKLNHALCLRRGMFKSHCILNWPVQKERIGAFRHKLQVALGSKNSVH
T1 sequence (O00206 whole entry): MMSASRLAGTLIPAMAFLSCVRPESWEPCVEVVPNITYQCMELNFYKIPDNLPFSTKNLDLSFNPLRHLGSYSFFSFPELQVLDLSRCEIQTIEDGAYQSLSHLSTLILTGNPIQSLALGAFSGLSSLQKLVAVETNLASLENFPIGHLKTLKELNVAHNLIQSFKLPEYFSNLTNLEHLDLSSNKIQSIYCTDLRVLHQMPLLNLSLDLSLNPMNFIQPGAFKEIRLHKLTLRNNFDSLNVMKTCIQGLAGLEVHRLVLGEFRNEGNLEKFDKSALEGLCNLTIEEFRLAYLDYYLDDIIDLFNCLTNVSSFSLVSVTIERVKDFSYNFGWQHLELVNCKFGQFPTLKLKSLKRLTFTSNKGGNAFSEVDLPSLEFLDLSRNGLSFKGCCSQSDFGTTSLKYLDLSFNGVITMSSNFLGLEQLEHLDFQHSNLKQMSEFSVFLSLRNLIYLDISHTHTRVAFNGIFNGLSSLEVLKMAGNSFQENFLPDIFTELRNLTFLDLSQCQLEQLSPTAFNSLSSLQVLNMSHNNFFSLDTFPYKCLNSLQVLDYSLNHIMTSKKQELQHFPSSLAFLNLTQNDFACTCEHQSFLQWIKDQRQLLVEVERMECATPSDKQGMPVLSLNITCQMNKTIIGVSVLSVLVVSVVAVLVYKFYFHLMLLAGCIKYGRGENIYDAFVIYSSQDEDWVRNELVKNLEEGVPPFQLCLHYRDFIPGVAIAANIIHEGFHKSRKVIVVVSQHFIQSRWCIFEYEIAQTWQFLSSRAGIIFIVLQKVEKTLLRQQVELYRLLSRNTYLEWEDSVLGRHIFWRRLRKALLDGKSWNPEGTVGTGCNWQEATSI
Chain of Toll-like receptor 2 (Homo sapiens) (O60603 whole entry): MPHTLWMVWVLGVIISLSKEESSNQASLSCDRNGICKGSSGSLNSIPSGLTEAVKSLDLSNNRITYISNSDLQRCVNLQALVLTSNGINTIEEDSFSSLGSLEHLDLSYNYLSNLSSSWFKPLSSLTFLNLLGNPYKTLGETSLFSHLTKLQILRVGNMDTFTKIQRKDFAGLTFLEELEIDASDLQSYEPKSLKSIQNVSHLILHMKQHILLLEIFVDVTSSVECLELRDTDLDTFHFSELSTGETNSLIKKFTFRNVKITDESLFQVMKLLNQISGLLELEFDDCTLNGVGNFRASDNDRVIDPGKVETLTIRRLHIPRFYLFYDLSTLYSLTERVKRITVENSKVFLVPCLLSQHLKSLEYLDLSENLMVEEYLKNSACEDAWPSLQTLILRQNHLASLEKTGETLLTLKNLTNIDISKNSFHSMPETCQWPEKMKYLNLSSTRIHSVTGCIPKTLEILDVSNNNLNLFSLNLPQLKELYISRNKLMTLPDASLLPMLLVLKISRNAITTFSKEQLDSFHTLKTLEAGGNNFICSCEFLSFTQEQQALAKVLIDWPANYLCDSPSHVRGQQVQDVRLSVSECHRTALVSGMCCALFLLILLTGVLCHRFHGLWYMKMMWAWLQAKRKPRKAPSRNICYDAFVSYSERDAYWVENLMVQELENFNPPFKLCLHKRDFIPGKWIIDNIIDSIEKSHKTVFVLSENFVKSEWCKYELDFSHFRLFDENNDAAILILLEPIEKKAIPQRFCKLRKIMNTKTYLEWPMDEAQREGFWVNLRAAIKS

C[C@@H](OC(=O)c1ccccc1O)[C@]1(O)CC[C@@]2(O)[C@]1(C)[C@H](OC(=O)/C=C/c1ccccc1)C[C@@H]1[C@@]3(C)CC[C@H](O)CC3=CC[C@]12O
active: Activity (THP-1 [1]) | inhibition (Toll-like receptor 4 [4]) | inhibition (Toll-like receptor 4 [5]) | inhibition [6] | inhibition [7] | inhibition [8] | inhibition [9] | inhibition (Toll-like receptor 4 [10]) | inhibition (Toll-like receptor 4 [11]) | inhibition (Toll-like receptor 4 [12]) | inhibition [13] | inhibition [14] | inhibition [15] | inhibition [16] | Activity [21] | Activity (THP-1 [23]) | Activity (THP-1 [24]) | Activity (THP-1 [26]) | Activity (THP-1 [27]) | Activity (AD293 [28]) | Activity (AD293 [29]) | inhibition (Toll-like receptor 4 [30])
4.9 µM: EC50 (Toll-like receptor 4 [2])
inactive: inhibition [17] | inhibition [18] | inhibition [19] | Activity (AD293 [20]) | inhibition (Toll-like receptor 4 [22]) | inhibition (Toll-like receptor 4 [25]) | inhibition (Toll-like receptor 4 [31]) | inhibition (Toll-like receptor 4 [32]) | inhibition (Toll-like receptor 4 [33])
> 10 µM: EC10 (Homo sapiens) | CC10 (AD293 [3])
